Measurements reported in PMC8259857, “Anti-tubercular activity and molecular docking studies of indolizine derivatives targeting mycobacterial InhA enzyme” (Journal of Enzyme Inhibition and Medicinal Chemistry, 2021).
≈ marks a conversion by molar mass, not a printed value.

What was measured:
[1] = test system: susceptible H37Rv MTB strain (ATCC 25177); experiment: Resazurin Microplate Assay (REMA), whole-cell anti-tubercular activity against H37Rv; assay type: cell-based, Mycobacterium tuberculosis; conditions: for MIC: Mycobacterium tuberculosis, read-out: MIC H37Rv; for MIC H37Rv: H37Rv ATCC 25177, NA: not active at the concentration range (0.2–64 μg/mL)

SMILES | MIC [1] [µg/mL] | MIC H37Rv [1] | melting point [°C]
CCOC(=O)c1cc(C(=O)c2ccc(Cl)cc2)n2ccccc12 [Compound 2b] | 8 (≈ 24.4 µM) |  | 
CCOC(=O)c1cc(C(=O)c2ccc(Br)cc2)n2ccccc12 [Compound 2c] | 32 (≈ 86 µM) |  | 
CCOC(=O)c1cc(C(=O)c2ccc([N+](=O)[O-])cc2)n2ccccc12 [Compound 2d] | 8 (≈ 23.6 µM) |  | 
CCOC(=O)c1cc(C(=O)c2ccc(C)cc2)n2ccccc12 [Compound 2e] |  | completely abolished the activity | 
CCOC(=O)c1cc(C(=O)c2ccc(C#N)cc2)n2ccccc12 [Compound 2f] |  | completely abolished the activity | 
CCOC(=O)c1c(C)c(C(=O)c2ccc(F)cc2)n2ccccc12 [Compound 3a] | 4 (≈ 12.3 µM) |  | 
CCOC(=O)c1c(C)c(C(=O)c2ccc(Cl)cc2)n2ccccc12 [Compound 3b] | 32 (≈ 93.6 µM) |  | 
CCOC(=O)c1c(C)c(C(=O)c2ccc([N+](=O)[O-])cc2)n2ccccc12 [Compound 3d] | 8 (≈ 22.7 µM) |  | 
CCOC(=O)c1c(C(=O)OCC)c2ccccn2c1C(=O)c1ccc(F)cc1 [Compound 4a, Diethyl-3-(4-fluorobenzoyl)indolizine-1,2-dicarboxylate] | 8 (≈ 20.9 µM) |  | 138 to 139
CCOC(=O)c1c(C(=O)OCC)c2ccccn2c1C(=O)c1ccc(Cl)cc1 [Compound 4b, Diethyl-3-(4-chlorobenzoyl)indolizine-1,2-dicarboxylate] | 8 (≈ 20 µM) |  | 137 to 138
CCOC(=O)c1c(C(=O)OCC)c2ccccn2c1C(=O)c1ccc([N+](=O)[O-])cc1 [Compound 4c, Diethyl-3-(4-nitrobenzoyl)indolizine-1,2-dicarboxylate] | 32 (≈ 78 µM) |  | 111 to 112
NNC(=O)c1ccncc1 [Isoniazid, reference compound] | < 0.2 |  | 
CO[C@H]1/C=C/O[C@@]2(C)Oc3c(C)c(O)c4c(O)c(c(/C=N/N5CCN(C)CC5)c(O)c4c3C2=O)NC(=O)/C(C)=C\C=C\[C@H](C)[C@H](O)[C@@H](C)[C@@H](O)[C@@H](C)[C@H](OC(C)=O)[C@@H]1C [Rifampicin, reference compound] | < 1 |  | 
